In article PMC9865188 (Pharmaceutics, 2023):
Where two headings read alike, the source gives them in different places.

Tests used:
[1] = cited from earlier work
[2] = Pharmacokinetic study in Sprague Dawley rats (oral gavage); type: in vivo; details: for AUC(0-t) / Cmax / bioavailability / half-life: male, Sprague-Dawley, rat, plasma, po; for AUC(0-t): Zosuquidar AUC0–6h; for Cmax: Zosuquidar Cmax; for bioavailability: Zosuquidar bioavailability; for half-life: Zosuquidar t½
Experimental: The study was conducted according to the European Convention for the Protection of Vertebrate Animals used for Experimental and other Scientific Purposes (ETS no. 123) and Belgian law controlling the experiments on animals (Royal Decree of 29 May 2013 for the protection of laboratory animals). Animals were allowed minimum five days to acclimatise upon arrival from the supplier, and they were housed in polysulphone cages (58 × 52 × 20 cm) in groups of six provided with wooden sticks for enrichment. Animals had free access to Safe 04 Maintenance Diet (Safe, Rosenberg, Germany) and water during acclimatisation and during the study.
Male Sprague Dawley rats (Charles River, Dortmund, Germany) weighing 293–358 g were randomly assigned into six groups of six animals. Formulations were prepared as clear solutions in 40% v/v ethanol–water and 10 mL/kg was administered to each animal by oral gavage. […] Plasma samples were taken by tail vein puncture with a needle followed by collection in 32–64 µL micro haematocrit tubes (Vitrex Medical, Herlev, Denmark) at times 15, 30, and 45 min and 1, 2, 3, 4, and 6 h. Samples were centrifuged, and plasma was transferred into 10 µL end-to-end pipettes (Vitrex Medical, Herlev, Denmark) and immediately frozen at −80 °C until bioanalysis. Immediately after the study, animals were euthanised according to the principles of euthanasia stated in the AVMA Guidelines for the Euthanasia of Animals (American Veterinary Medical Association, 2020). Plasma samples were analysed by a previously described qualified LC-MS/MS method.
Pharmacokinetic parameters were calculated individually for each animal subject and pooled for statistical analysis. The plasma concentration at 15 min (C15min) was reported as an average of the plasma concentration of the six animals in each group. […] Elimination rate constants (ke) were calculated by linear regression of the linear part of the ln(plasma concentration) versus time profiles, and plasma half-life (t½) was calculated from ke:(3) t½=ln (2)/ke

[3] = Nonspecific zosuquidar adsorption to glass HPLC vials; type: physicochemical; details: for nonspecific zosuquidar adsorption: 25% methanol in HEPES HBSS pH 7.4; for zosuquidar concentration found (theoretical 250 nM): HEPES HBSS pH 7.4 in glass vial
Experimental: Generally, when zosuquidar was diluted in aqueous solutions, less zosuquidar than expected was present according to HPLC-FL quantitation, when compared to the corresponding dilutions in water–organic solvent mixtures. […] These were further diluted in methanol or DMSO to 100 µM. For adsorption experiments, solutions of 0.5–49.5% v/v methanol or DMSO in HEPES HBSS pH 7.4 were prepared, along with HEPES HBSS pH 7.4 supplemented with 0.10, 1.0, 2.5, 5.0, 10, or 50 µM polysorbate 20 or 0.05% bovine serum albumin, as well as 10 mM MES HBSS pH 6.5, 10 mM ammonium acetate pH 4.5, 19 mM maleic acid buffer pH 6.5, and FaSSIF-V2. […] The vials were capped and vortexed for 1 min and equilibrated at ambient temperature for approximately 24 h before HPLC-FL analysis. The peak area of the samples was normalised to the peak area of control samples, which were considered to elicit 0% adsorption. […] Both vials were equilibrated at room temperature for at least 24 h. […] The solutions in both vials were then analysed directly by HPLC-FL.

[4] = HEPES HBSS pH 7.4 + 5 or 10 µM polysorbate 20, 1% methanol, or 1% DMSO
Experimental: Samples were shaken on a vertical rotator (10 rpm, PTR-60, Grant Instruments, Cambridge, UK) for approximately 72 h at ambient temperature. The suspensions were then centrifuged at ambient temperature (15,000 RCF, 10 min, Multifuge X1R, Thermo Fisher Scientific, Boston, MA, USA), and a sample of the supernatant was transferred and diluted 1:1 with mobile phase in a 2 mL glass HPLC vial and analysed by fluorescence-coupled HPLC (HPLC-FL).

P-gp = P-gp (Homo sapiens, UniProt P08183); assay: Calcein-AM assay in MDCKII-MDR1 cells; type: cell-based; set-up: Piet Borst (Netherlands Cancer Institute); host or cells: MDCKII
Chain of P-gp (P08183 whole entry): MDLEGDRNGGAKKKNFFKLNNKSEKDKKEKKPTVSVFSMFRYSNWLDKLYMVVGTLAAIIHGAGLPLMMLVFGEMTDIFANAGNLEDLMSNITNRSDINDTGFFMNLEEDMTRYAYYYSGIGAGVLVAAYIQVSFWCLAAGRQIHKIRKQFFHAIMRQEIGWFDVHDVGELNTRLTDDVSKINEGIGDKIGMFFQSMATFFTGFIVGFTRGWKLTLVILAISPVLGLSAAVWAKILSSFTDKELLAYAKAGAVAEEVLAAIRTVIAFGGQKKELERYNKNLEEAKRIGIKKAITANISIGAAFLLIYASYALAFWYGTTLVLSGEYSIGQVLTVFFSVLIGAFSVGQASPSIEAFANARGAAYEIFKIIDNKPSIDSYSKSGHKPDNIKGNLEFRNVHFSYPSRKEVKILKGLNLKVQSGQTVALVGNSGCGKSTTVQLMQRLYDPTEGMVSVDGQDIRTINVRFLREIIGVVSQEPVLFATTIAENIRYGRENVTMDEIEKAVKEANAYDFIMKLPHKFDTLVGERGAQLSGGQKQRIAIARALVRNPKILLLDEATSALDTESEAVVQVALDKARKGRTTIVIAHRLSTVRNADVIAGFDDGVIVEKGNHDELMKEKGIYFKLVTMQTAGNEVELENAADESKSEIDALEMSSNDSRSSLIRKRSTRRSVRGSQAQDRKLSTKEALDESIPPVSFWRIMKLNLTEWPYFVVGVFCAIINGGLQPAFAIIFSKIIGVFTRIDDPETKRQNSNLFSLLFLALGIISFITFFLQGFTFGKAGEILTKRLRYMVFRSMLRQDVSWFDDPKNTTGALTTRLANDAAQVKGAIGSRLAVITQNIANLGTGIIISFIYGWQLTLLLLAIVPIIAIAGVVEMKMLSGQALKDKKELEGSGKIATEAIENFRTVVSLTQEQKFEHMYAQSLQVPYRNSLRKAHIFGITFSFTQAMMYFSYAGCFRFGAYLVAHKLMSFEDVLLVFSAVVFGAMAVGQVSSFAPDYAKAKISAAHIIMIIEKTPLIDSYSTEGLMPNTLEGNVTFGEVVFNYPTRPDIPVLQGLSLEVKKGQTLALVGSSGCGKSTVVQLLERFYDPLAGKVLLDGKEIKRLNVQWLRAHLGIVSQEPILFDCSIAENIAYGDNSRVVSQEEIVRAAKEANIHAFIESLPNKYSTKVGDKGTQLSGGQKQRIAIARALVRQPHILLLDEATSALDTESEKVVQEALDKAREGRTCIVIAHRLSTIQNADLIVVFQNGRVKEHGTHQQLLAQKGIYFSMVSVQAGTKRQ
Experimental: Before the experiment, growth medium was removed by vacuum suction (Vacusip, Integra Biosciences, NH, USA), 100 µL HEPES HBSS pH 7.4 was added to each well with a multichannel pipette, and the cells were incubated on a Talboys 1000 MP incubating microplate shaker (Troemner, NJ, USA, 220 rpm, 37 °C).
A total of 170 µL of the test solutions could then be transferred from the 96-well plate to the cell-containing plate at the start of preincubation. […] Wells containing HEPES HBSS pH 7.4 only served as a positive control. The cells were preincubated with test solutions (serial and spike) for 10 min on a microplate shaker (37 °C, 220 rpm). To start the experiment, 30 µL 33.3 µM calcein-AM in HEPES HBSS pH 7.4 was added to each well with a multichannel pipette, and the plate was stirred for 1 min on a microplate shaker (37 °C, 220 rpm) before being transferred to a Fluostar Omega plate reader.
One column of wells was kept without cells to measure background fluorescence signals from the applied buffers and compounds.

[5] = group G*: zosuquidar 2.0 mg/kg + etoposide 20 mg/kg oral
[6] = group H*: zosuquidar 6.3 mg/kg + etoposide 20 mg/kg oral
[7] = 2 mg/kg, group D: zosuquidar 2.0 mg/kg + etoposide 20 mg/kg + 5.0% v/v polysorbate 20 oral
[8] = 6.3 mg/kg, group E: zosuquidar 6.3 mg/kg + etoposide 20 mg/kg + 5.0% v/v polysorbate 20 oral
[9] = 6.3 mg/kg, group F: zosuquidar 6.3 mg/kg + etoposide 20 mg/kg + 10% v/v polysorbate 20 oral

O[C@@H](COc1cccc2ncccc12)CN1CCN([C@@H]2c3ccccc3[C@@H]3[C@H](c4ccccc42)C3(F)F)CC1 [zosuquidar]
Zosuquidar AUC0–6h ([1]; group F*: zosuquidar 0.63 mg/kg + etoposide 20 mg/kg oral): BLQ
Zosuquidar AUC0–6h [1, 5]: 8.67 ± 0.77 ng·h/mL
Zosuquidar Cmax [1, 5]: 2.10 ± 0.27 ng/mL
Zosuquidar bioavailability [1, 5]: 2.58 ± 0.23%
Zosuquidar tmax, median [Q1; Q3] [1, 5]: 120 [45;135] min
Zosuquidar t½ [1, 5]: 3.62 ± 0.45 h
Zosuquidar AUC0–6h [1, 6]: 43.6 ± 5.4 ng·h/mL
Zosuquidar Cmax [1, 6]: 10.9 ± 1.2 ng/mL
Zosuquidar bioavailability [1, 6]: 4.12 ± 0.51%
Zosuquidar tmax, median [Q1; Q3] [1, 6]: 90 [45;120] min
Zosuquidar t½ [1, 6]: 2.68 ± 0.217 h
Zosuquidar AUC0–6h ([2]; group B: zosuquidar 0.63 mg/kg + etoposide 20 mg/kg + 1.0% v/v polysorbate 20 oral): BLQ
Zosuquidar tmax, median [Q1; Q3] ([2]; group E: zosuquidar 6.3 mg/kg + etoposide 20 mg/kg + 5.0% v/v polysorbate 20 oral): 60 [56;120] min
AUC(0-t) [2, 7]: 18.9 ± 2.8 ng·h/mL
Cmax [2, 7]: 4.8 ± 0.5 ng/mL
bioavailability [2, 7]: 5.64 ± 0.83%
half-life [2, 7]: 3 ± 0.383 h
AUC(0-t) [2, 8]: 47 ± 3.7 ng·h/mL
AUC(0-t) [2, 9]: 56.8 ± 4.2 ng·h/mL
Cmax [2, 8]: 13.2 ± 1 ng/mL
Cmax [2, 9]: 16.6 ± 1.1 ng/mL
bioavailability [2, 8]: 4.45 ± 0.35%
bioavailability [2, 9]: 5.38 ± 0.4%
half-life [2, 8]: 2.53 ± 0.333 h
half-life [2, 9]: 2.45 ± 0.167 h
nonspecific zosuquidar adsorption ([3]; 500 nM zosuquidar): 2.19 ± 6.71%
zosuquidar adsorption ([3]; 500 nM zosuquidar, 50% DMSO in HEPES HBSS pH 7.4): −5.9 ± 1.1%
zosuquidar adsorption ([3]; 500 nM zosuquidar, FaSSIF-V2 pH 6.5): 13.6 ± 1.0%
zosuquidar adsorption ([3]; 500 nM zosuquidar, HEPES HBSS pH 7.4 + 0.5% methanol): 97.0 ± 0.6%
nonspecific zosuquidar adsorption ([3]; 0.75 µM zosuquidar): 6.83 ± 2.33%
nonspecific zosuquidar adsorption ([3]; 2.5 µM zosuquidar): 2.76 ± 0.22%
nonspecific zosuquidar adsorption ([3]; 7.5 µM zosuquidar): −0.10 ± 2.02%
nonspecific zosuquidar adsorption ([3]; 25 µM zosuquidar): 32.5 ± 0.7%
zosuquidar concentration found (theoretical 250 nM) ([3]; after transfer to a new vial): 38.1 ± 13.7 nM
zosuquidar concentration found (theoretical 250 nM) ([3]; without transfer): 282 ± 8 nM
effect on solubility [4]: did not significantly affect
mean P-gp activity (P-gp; […] zosuquidar + 2.5 µM polysorbate 20, spike method): 61%
mean P-gp activity (P-gp; […] zosuquidar + 5 µM polysorbate 20, spike method): 46%
discrepancy of IC50, serial dilution vs spike method (P-gp; calcein-AM, zosuquidar alone): 60 fold
